According to patent US8273738B2, “Imidazole derivatives” (priority 2006, dated 2012):
Where two headings read alike, the source gives them in different places.

Key:
[1] = system: rats with chronic constriction nerve injury; test: Analgesic effect in rats with chronic constriction nerve injury (von Frey filament); format: in vivo, rat; conditions: oral, dose of 50 mg/kg or less, one hour after administration, von Frey filaments
Text: Rats with chronic constriction nerve injury were produced by partially modifying the method of Mosconi and Kruger et al. (Pain, vol. 64, pp. 37-57 (1996))
Male Crl:CD(SD) rats were used for the experiments. Under pentobarbital anesthesia, the sciatic nerve of the left hind limb of the rat was exfoliated, and the exfoliated region was wrapped with a polyethylene tube (trade name: Intramedic, size: PE-60, manufactured by Becton Dickinson and Company) of 2 mm in length. On days 14 to 21 after the surgery, the rats were placed in an acrylic connected cage with a wire mesh floor (900 mm (length)×210 mm (depth)×140 mm (height)) consisting of 4 cages connected in a row and allowed to acclimate to the environment for at least 20 minutes, and then, the pain was evaluated.
The von Frey filament (trade name: touch test sensory evaluator, Model number: model 58011, manufactured by Muromachi Kikai) was used to evaluate pain, and the results were calculated as a pain threshold. That is, by using a von Frey filament of different stimulus intensity, stimulation was given to the plantar surface of the injured side of rats with chronic constriction nerve injury, and the stimulus intensity to cause paw withdrawal response was obtained. Then, the 50% pain threshold (Paw withdrawal threshold) (g) was calculated by the up down method of Dixon [Annual Review of Pharmacology and Toxicology, vol. 20, pp. 441-462 (1980)].
In the evaluation of the test compound, rats with 50% pain threshold of less than 4 g were used, and the test compound was dissolved in a 0.5% aqueous methyl cellulose solution and orally administered at a dose of 5 mL/kg. One hour after the administration, the pain threshold was measured using von Frey filaments.

CB2 receptor = molecular target: T1, CB2 receptor (Rattus norvegicus, UniProt Q9QZN9); test: Cannabinoid CB2 receptor-binding activity ([3H]CP55940 binding experiment), rat spleen membrane specimen
T1 construct: from tissue; host or cells: rat spleen membrane specimen
T1 sequence (Q9QZN9 1-360): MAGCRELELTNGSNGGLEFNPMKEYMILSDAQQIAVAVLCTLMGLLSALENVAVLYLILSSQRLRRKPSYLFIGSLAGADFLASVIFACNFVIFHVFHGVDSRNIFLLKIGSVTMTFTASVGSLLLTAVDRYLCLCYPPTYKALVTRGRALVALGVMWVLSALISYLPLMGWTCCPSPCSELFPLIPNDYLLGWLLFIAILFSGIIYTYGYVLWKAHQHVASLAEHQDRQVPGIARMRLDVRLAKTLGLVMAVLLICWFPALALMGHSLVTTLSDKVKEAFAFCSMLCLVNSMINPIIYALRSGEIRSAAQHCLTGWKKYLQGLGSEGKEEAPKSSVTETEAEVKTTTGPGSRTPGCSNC
Procedure: A test was carried out according to the method of Hillard et al. [The Journal of Pharmacology and Experimental Therapeutics, vol. 289, p. 1427 (1999)]. A rat forebrain membrane specimen and a rat spleen membrane specimen were prepared and used in a binding experiment for a CB1 receptor and a binding experiment for a CB2 receptor, respectively. The membrane specimen (forebrain: final concentration of 0.5 mg of protein/mL, spleen: final concentration of 2 mg of protein/mL) was incubated together with a test compound and [^3H]CP55940 (manufactured by PerkinElmer) ((−)-cis-3-[2-hydroxy-[3,5-^3H]-4-(1,1-dimethylheptyl)phenyl]-trans-4-(3-hydroxypropyl)cyclohexanol)) (final concentration: 0.5 nmol/L) in an assay buffer (50 mmol/L Tris-HCl buffer (pH 7.4), 1 mmol/L EDTA and 3 mmol/L MgCl2) containing 0.1% bovine serum albumin at 25° C. for 1 hour, and the resulting mixture was filtered using a glass filter GF/C (manufactured by Whatman) treated with 1% polyethyleneimine. After the glass filter was washed with the assay buffer containing 0.2% bovine serum albumin, the radioactivity on the glass filter was measured using a liquid scintillation counter (TRI-CARB 2700TR, manufactured by Packard). The binding amount in the presence of 10 μmol/L […] (manufactured by Tocris) ((R)-(+)-[2,3-dihydro-5-methyl-3-(4-morpholinylmethyl)pyrrolo[1,2,3-de]-1,4-benzoxazin-6-yl]-1-naphthalenylmethanone) was considered to be a non-specific binding amount, and a difference between the total binding amount and the non-specific binding amount was considered to be a specific binding amount. The 50% inhibitory concentration (IC50 value) of the test compound against the specific binding was obtained, and the Ki value of the test substance was calculated from the 50% inhibitory concentration and the Kd value of the [^3H]CP55940 binding.

human CB2 receptor = molecular target: T2, human CB2 receptor (Homo sapiens, UniProt P34972); test: GTPγS binding experiment via human CB2 receptor (membrane fraction of CHO-K1 cells); format: biochemical; conditions: for Emax: read-out: Emax value (maximum effect of CP55940 as 100%)
T2 construct: expressed in transfected cells
T2 sequence (P34972 whole entry): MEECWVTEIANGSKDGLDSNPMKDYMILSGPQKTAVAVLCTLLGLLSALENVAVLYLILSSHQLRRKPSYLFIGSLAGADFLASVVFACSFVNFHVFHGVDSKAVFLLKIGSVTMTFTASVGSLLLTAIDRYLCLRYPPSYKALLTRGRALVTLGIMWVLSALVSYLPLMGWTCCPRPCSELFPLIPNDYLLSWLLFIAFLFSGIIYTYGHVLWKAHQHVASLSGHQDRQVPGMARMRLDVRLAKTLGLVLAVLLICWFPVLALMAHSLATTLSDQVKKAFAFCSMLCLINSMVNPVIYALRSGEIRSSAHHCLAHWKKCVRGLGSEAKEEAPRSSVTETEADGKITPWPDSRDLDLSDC
Procedure: A test was carried out according to the method of Hillard et al. [The Journal of Pharmacology and Experimental Therapeutics, vol. 289, p. 1427 (1999)]. As for a membrane specimen, a membrane fraction was prepared from CHO-K1 cells in which a human CB2 receptor [Nature, vol. 365, pp. 61-65 (1993)] was stably expressed and used. The membrane specimen (final concentration: 40 μg of protein/mL) was incubated together with a test compound and [^35S]GTPγS (manufactured by PerkinElmer) (final concentration: 0.05 nmol/L) in an assay buffer (50 mmol/L Tris-HCl buffer (pH 7.4), 100 mmol/L NaCl, 1 mmol/L EDTA, 3 mmol/L MgCl2, and 0.1% bovine serum albumin) containing 20 μmol/L guanosine 5′-diphosphate (GDP) at 30° C. for 1 hour, and the resulting mixture was filtered using a glass filter GF/B (manufactured by Whatman). After the glass filter was washed with the assay buffer, the radioactivity on the glass filter was measured using a liquid scintillation counter (TRI-CARB 2700TR, manufactured by Packard). The binding amount in the presence of 10 μmol/L GTPγS was considered to be a non-specific binding amount, and a difference between the total binding amount and the non-specific binding amount was considered to be a specific binding amount. The ratio of increase in the specific binding amount in the presence of the test compound to the specific binding amount in the absence of the test compound was considered to be an agonistic activity of the test compound. The concentration of the test compound that produces 50% of the maximum effect (EC50 value) was calculated by performing a nonlinear regression analysis using the concentration-response data. The percentage of the maximum effect of the test compound (Emax value) was calculated by considering the maximum effect of CP55940 (manufactured by Tocris) measured at the same time as 100%.

SMILES	50% pain threshold (paw withdrawal threshold) [1]	Ki (CB2 receptor) [nM]	EC50 (human CB2 receptor) [nM]	Emax (human CB2 receptor) [%]	Ki (CB2 receptor; rat spleen membrane, [3H]CP55940 0.5 nmol/L, 25° C., 1 hour, read-out: Ki value against the CB2 receptor) [nM]
CN(C(=O)c1cncc(-c2cn(CC3CCOCC3)c(C(C)(C)C)n2)n1)C1CC1 [Compound 205, 6-[2-tert-Butyl-1-(tetrahydropyran-4-ylmethyl)-1H-imidazol-4-yl]-N-cyclopropyl-N-methylpyrazine-2-carboxamide]	significantly increased the pain threshold	< 1000	< 1000	> 30	–
CCN(CC)C(=O)c1cncc(-c2cn(CC3CCOCC3)c(C(C)(C)C)n2)n1 [Compound 143, 6-[2-tert-Butyl-1-(tetrahydropyran-4-ylmethyl)-1H-imidazol-4-yl]-N,N-diethylpyrazine-2-carboxamide]	significantly increased the pain threshold	–	< 1000	> 30	< 1000
CCN(C)C(=O)c1cncc(-c2cn(CC3CCOCC3)c(C(C)(C)C)n2)n1 [Compound 146, 6-[2-tert-Butyl-1-(tetrahydropyran-4-ylmethyl)-1H-imidazol-4-yl]-N-ethyl-N-methylpyrazine-2-carboxamide]	significantly increased the pain threshold	< 1000	< 1000	> 30	–
CCN(C)C(=O)c1cc(-c2cn(CC3CCOCC3)c(C(C)(C)C)n2)cs1 [Compound 102, 4-[2-tert-Butyl-1-(tetrahydropyran-4-ylmethyl)-1H-imidazol-4-yl]-N-ethyl-N-methylthiophene-2-carboxamide]	significantly increased the pain threshold	< 1000	< 1000	> 30	–
CN(CC1CC1)C(=O)c1cncc(-c2cn(CC3CCOCC3)c(C(C)(C)C)n2)n1 [Compound 206, 6-[2-tert-Butyl-1-(tetrahydropyran-4-ylmethyl)-1H-imidazol-4-yl]-N-cyclopropylmethyl-N-methylpyrazine-2-carboxamide]	significantly increased the pain threshold	< 1000	< 1000	> 30	–
CN(C)C(=O)c1cncc(-c2cn(CC3CCOCC3)c(C(C)(C)C)n2)n1 [Compound 153, 6-[2-tert-Butyl-1-(tetrahydropyran-4-ylmethyl)-1H-imidazol-4-yl]-N,N-dimethylpyrazine-2-carboxamide]	significantly increased the pain threshold	< 1000	< 1000	> 30	–
CCN(CC)C(=O)c1cc(-c2cn(CC3CCOCC3)c(C(C)(C)C)n2)ccc1Cl [Compound 65, 2-Chloro-5-(2-tert-butyl-1-(tetrahydropyran-4-ylmethyl)-1H-imidazol-4-yl)-N,N-diethylbenzamide]	significantly increased the pain threshold	< 1000	< 1000	> 30	–
CN(CC(F)(F)F)C(=O)c1cc(-c2cn(CC3CCOCC3)c(C(C)(C)C)n2)on1 [Compound 204, 5-[2-tert-Butyl-1-(tetrahydropyran-4-ylmethyl)-1H-imidazol-4-yl]-N-methyl-N-(2,2,2-trifluoroethyl)isoxazole-3-carboxamide]	significantly increased the pain threshold	< 1000	< 1000	> 30	–
CCN(CC)C(=O)c1cc(-c2cn(CC3CCOCC3)c(C(C)(C)C)n2)ccc1F.Cl [Compound 66, 5-(2-tert-Butyl-1-(tetrahydropyran-4-ylmethyl)-1H-imidazol-4-yl)-N,N-diethyl-2-fluorobenzamide hydrochloride]	significantly increased the pain threshold	< 1000	< 1000	> 30	–
CCCN(C)C(=O)c1cncc(-c2cn(CC3CCOCC3)c(C(C)(C)C)n2)n1 [Compound 144, 6-[2-tert-Butyl-1-(tetrahydropyran-4-ylmethyl)-1H-imidazol-4-yl]-N-methyl-N-propylpyrazine-2-carboxamide]	significantly increased the pain threshold	< 1000	< 1000	> 30	–
CCN(CC)C(=O)c1cncc(-c2cn(CC3CCOCC3)c(C(C)(C)C)n2)c1 [Compound 85, 5-(2-tert-Butyl-1-(tetrahydropyran-4-ylmethyl)-1H-imidazol-4-yl)-N,N-diethylnicotinamide]	significantly increased the pain threshold	< 1000	< 1000	> 30	–
CC(C)(C)c1nc(-c2cccc([N+](=O)[O-])c2)cn1CC1CCOCC1 [Compound 70, 2-tert-Butyl-4-(3-nitrophenyl)-1-(tetrahydropyran-4-ylmethyl)-1H-imidazole]	significantly increased the pain threshold	< 1000	< 1000	> 30	–
CCN(CC)C(=O)c1cccc(-c2cn(CC3CCOCC3)c(C(C)(C)C)n2)c1.Cl [Compound 76, 3-(2-tert-Butyl-1-(tetrahydropyran-4-ylmethyl)-1H-imidazol-4-yl)-N,N-diethylbenzamide hydrochloride]	significantly increased the pain threshold	< 1000	< 1000	> 30	–
CCN(C)C(=O)c1cccc(-c2cn(CC3CCOCC3)c(C(C)(C)C)n2)c1.Cl [Compound 83, 3-(2-tert-Butyl-1-(tetrahydropyran-4-ylmethyl)-1H-imidazol-4-yl)-N-ethyl-N-methylbenzamide hydrochloride]	significantly increased the pain threshold	< 1000	< 1000	> 30	–
